Results reported in US4581354A, “3-arylcarbonyl- and 3-cycloalkylcarbonyl-1-aminoalkyl-1H-indoles, compositions and use” (Sterling Drug Inc., priority 1985, dated 1986).
Like-named read-outs stand apart in the source and are kept apart here.

System: acetylcholine-induced abdominal constriction
Test: animal or person
Assay type: in vivo, mice
Settings: for ED50: read-out: Ach ED50; for inhibition in vivo at 300 mg/kg: 300 mg./kg. oral; for inhibition in vivo at 3 mg/kg: 3 mg./kg. i.v.; for inhibition in vivo at 10 mg/kg: 10 mg./kg. i.v.; for inhibition in vivo at 550 mg/kg: 550 mg./kg. oral; for inhibition in vivo at 150 mg/kg: 150 mg./kg. oral
Source text: The test procedures used to determine the analgesic activities of the compounds have been described in detail in the prior art and are as follows: The acetylcholine-induced abdominal constriction test, which is a primary analgesic screening test designed to measure the ability of a test agent to suppress acetylcholine-induced abdominal constriction in mice, described by Collier et al., Brit. J. Pharmacol. Chemotherap. 32, 295 (1968); a modification of the anti-bradykinin test, which is also a primary analgesic screening procedure, described by Berkowitz et al., J. Pharmacol. Exptl. Therap. 177, 500-508 (1971), Blane et al., J. Pharm. Pharmacol. 19, 367-373 (1967), Botha et al., Eur. J. Pharmacol. 6, 312-321 (1969) and Deffenu et al., J. Pharm. Pharmacol. 18, 135 (1966); and the rat paw flexion test, described by Kuzuna et al., Chem. Pharm. Bull., 23, 1184-1191 (1975), Winter et al., J. Pharm. Exptl. Therap., 211, 678-685 (1979) and Capetola et al., J. Pharm. Exptl. Therap. 214, 16-23 (1980).
Unless noted otherwise, all data were obtained on oral administration and are expressed either as the ED50 or as the percent inhibition at a given dose level (thus 30/100 or 30% inhibition at […].)
In some instances, the compounds were retested two or more times, and ED50 values were calculated for each series of repeat tests. In such instances, each of the ED50 values so-obtained is given in a series of values, thus 6, 28, 30, 43 in the case of the species of Example 1AW in the acetylcholine-induced abdominal constriction test.

[1] = Mus musculus, po, 100 mg./kg. oral, read-out: Ach percent inhibition
[2] = Mus musculus, po, read-out: Ach percent inhibition
[3] = Mus musculus, iv, read-out: Ach percent inhibition
[4] = Mus musculus, iv, 30 mg./kg. i.v., read-out: Ach percent inhibition
[5] = Mus musculus, sc, 30 mg./kg. s.c., read-out: Ach percent inhibition
[6] = Mus musculus, po, 30 mg./kg. oral, read-out: Ach percent inhibition

Row | Compound | ED50 (Mus musculus, po) [mg/kg] | inhibition in vivo at 100 mg/kg [1] [%] | also measured
1 | 5-bromo-2-methyl-3-(4-methylbenzoyl)-1-[2-(4-morpholinyl)ethyl]-1H-indole [Example 33] |  |  | Ach percent inhibition (100 mg./kg. oral): 20%
2 | COc1ccc(C(=O)c2c(C)n(CCN3CCOCC3)c3cc(Cl)ccc23)cc1 [Example 1-O] | 91.6 |  | 
3 | Cc1c(C(=O)c2ccc(C#N)cc2)c2ccccc2n1CCCN1CCOCC1 [Example 1AA] |  | 10 | 
4 | Cc1cccc2c1c(C(=O)c1ccccc1)c(C)n2CCN1CCOCC1 [Example 1AB] |  |  | inhibition in vivo at 300 mg/kg [2]: 47%
5 | Cc1c(C(=O)c2ccc(C#N)cc2)c2ccccc2n1CCN1CCOCC1 [Example 1AF, 2-methyl-3-(4-cyanobenzoyl)-1-[2-(4-morpholinyl)ethyl]-1H-indole] | 200 |  | inhibition in vivo at 3 mg/kg [3]: 0%; inhibition in vivo at 10 mg/kg [3]: 0%; inhibition in vivo at 30 mg/kg [4]: 30%
6 | Cc1c(C(=O)c2ccc(OCc3ccccc3)cc2)c2ccccc2n1CCN1CCOCC1 [Example 1AG, 2-methyl-3-(4-benzyloxybenzoyl)-1-[2-(4-morpholinyl)ethyl]-1H-indole] |  | 40 | inhibition in vivo at 10 mg/kg [3]: 10%; inhibition in vivo at 30 mg/kg [4]: 56%; inhibition in vivo at 300 mg/kg [2]: 47%; inhibition in vivo at 30 mg/kg [5]: 20%
7 | COc1cccc(C(=O)c2c(C)n(CCN3CCOCC3)c3ccccc23)c1 [Example 1AH] | 85 |  | 
8 | COc1ccc(C(=O)c2c(C)n(CCN3CCOCC3)c3ccccc23)cc1OC [Example 1AI] | 74 |  | 
9 | COc1ccc(C(=O)c2c(-c3ccccc3)n(CCN3CCOCC3)c3ccccc23)cc1 [Example 1AJ] |  | 13 | inhibition in vivo at 300 mg/kg [2]: 53%
10 | COc1ccc2c(c1)c(C(=O)c1ccccc1)cn2CCN1CCOCC1 [Example 1AK] |  |  | inhibition in vivo at 300 mg/kg [2]: 40%; inhibition in vivo at 550 mg/kg [2]: 47%
11 | COc1ccc2c(c1)c(C(=O)c1ccccc1)c(C)n2CCN1CCOCC1 [Example 1AL] | 113 |  | 
12 | COc1ccc(C(=O)c2c(C)n(CCN3CCOCC3)c3cc(OC)ccc23)cc1 [Example 1AM] | 32 |  | ED50 (Mus musculus, iv): 5 mg/kg
13 | O=C(c1ccc(Cl)cc1)c1cn(CCN2CCOCC2)c2ccccc12 [Example 1AR] |  |  | inhibition in vivo at 150 mg/kg [2]: 27%; inhibition in vivo at 300 mg/kg [2]: 27%; inhibition in vivo at 25 mg/kg (Mus musculus, sc, 25 mg./kg. s.c., read-out: Ach percent inhibition): 13%
14 | Cc1c(C(=O)c2ccc(Cl)c(Cl)c2)c2ccccc2n1CCN1CCOCC1 [Example 1AS] |  |  | inhibition in vivo at 300 mg/kg [2]: 33%
15 | CC(Cn1cc(C(=O)c2ccccc2)c2ccccc21)N1CCOCC1 (centres unmarked) [Example 1AZ] |  | 73 | inhibition in vivo at 75 mg/kg (Mus musculus, po, 75 mg./kg. oral, read-out: Ach percent inhibition): 20%; inhibition in vivo at 150 mg/kg [2]: 53%
16 | Cc1cccc2c(C(=O)c3ccccc3)cn(CCN3CCOCC3)c12 [Example 1BA] | 197 |  | 
17 | Cc1c(C(=O)c2cccc3ccccc23)c2ccccc2n1CCN1CCOCC1 [Example 1BB] | 97 |  | 
18 | Cc1c(C(=O)c2ccc(C#N)cc2)c2ccccc2n1CCN1CCCC1 [Example 1BC] |  | 40 | 
19 | CCN(CC)CCn1c(C)c(C(=O)c2ccc(OC)cc2)c2ccccc21 [Example 1BD] | 65 |  | 
20 | CCN(CC)CCn1c(C)c(C(=O)c2ccc(OC)cc2)c2ccccc21 [Example 1BE] |  |  | Ach ED50 (oral): 50.9 mg/kg
21 | COc1ccc(C(=O)c2c(C)n(CCN3CCOCC3)c3ccccc23)cc1 [Example 1BF] |  |  | inhibition in vivo at 30 mg/kg [6]: 0%
22 | CCCOc1ccc(C(=O)c2c(C)n(CCN3CCOCC3)c3ccccc23)cc1 [Example 1BG] |  |  | inhibition in vivo at 300 mg/kg [2]: 33%
23 | CCOc1ccc(C(=O)c2c(C)n(CCN3CCOCC3)c3ccccc23)cc1 [Example 1BH] |  | 27 | inhibition in vivo at 10 mg/kg [3]: 50%; inhibition in vivo at 30 mg/kg [6]: 0%; inhibition in vivo at 300 mg/kg [2]: 53%; inhibition in vivo at 550 mg/kg [2]: 58%; inhibition in vivo at 30 mg/kg [5]: 7%
24 | COc1ccc2cc(C(=O)c3c(C)n(CCN4CCOCC4)c4ccccc34)ccc2c1 [Example 1BJ] |  | 0 | 
25 | Cc1c(C(=O)c2ccc(C#N)cc2)c2cc(F)ccc2n1CCCN1CCOCC1 [Example 1BL] |  | 0 | 
26 | COc1ccc(C(=O)c2cn(CCCN3CCOCC3)c3ccc(F)cc23)cc1 [Example 1BM] |  | 0 | 
27 | COc1ccc(C(=O)c2c(C)n(CCCN3CCCCC3)c3ccc(F)cc23)cc1 [Example 1BN] | 36 |  | 

Row | Compound | ED50 (Mus musculus, po) [mg/kg] | inhibition in vivo at 100 mg/kg [1] [%] | also measured
28 | Cc1c(C(=O)c2ccccc2)c2cc(F)ccc2n1CCCN1CCOCC1 [Example 1BO] | 173 |  | 
29 | CCN(CC)CCCn1c(C)c(C(=O)c2ccc(OC)cc2)c2cc(F)ccc21 [Example 1BP] | 28 |  | 
30 | COc1ccc(C(=O)c2c(C)n(CCCN3CCOCC3)c3c(F)cc(F)cc23)cc1 [Example 1BR] | 123 |  | 
31 | COc1ccc(C(=O)c2c(C)n(C(C)CCN3CCOCC3)c3ccc(F)cc23)cc1 (centres unmarked) [Example 1BT] |  | 90 | 
32 | Cc1c(C(=O)c2ccccc2F)c2cc(F)ccc2n1C(C)CCN1CCOCC1 (centres unmarked) [Example 1BW] |  | 10 | 
33 | Cc1c(C(=O)c2ccc(-c3ccccc3)cc2)c2ccccc2n1CCN1CCOCC1 [Example 1BZ] |  | 0 | 
34 | Cc1c(C(=O)c2cccc3c2OCO3)c2ccccc2n1CCN1CCOCC1 [Example 1CA] |  | 20 | 
35 | Cc1c(C(=O)c2ccccc2-c2ccccc2)c2ccccc2n1CCN1CCOCC1 [Example 1CB] |  | 60 | 
36 | Cc1c(C(=O)c2ccc(C#N)cc2)c2cc(F)ccc2n1CCN1CCOCC1 [Example 1CC] |  | 10 | 
37 | Cc1c(C(=O)c2ccccc2F)c2ccccc2n1C(C)CCN1CCOCC1 (centres unmarked) [Example 1CD] | 79 |  | 
38 | CCN(CC)CCn1c(C)c(C(=O)c2ccc3ccccc3c2)c2ccccc21 [Example 1CE] |  | 0 | 
39 | COc1ccc(C(=O)c2c(C)n(CCCN3CCCC3)c3ccccc23)cc1 [Example 1CF] | 24 |  | 
40 | COc1ccc(C(=O)c2c(C)n(CCCN3CCCC3)c3ccccc23)cc1 [Example 1CG] |  |  | Ach ED50 (oral): 46.3 mg/kg
41 | CN(C)CCn1cc(C(=O)c2ccccc2)c2ccccc21 [Example 1CH] | 105 |  | 
42 | COc1ccc(C(=O)c2c(C)n(CCCCCN3CCOCC3)c3ccc(F)cc23)cc1 [Example 1CI] |  | 70 | 
43 | COc1ccc(C(=O)c2c(C)n(CCCCN3CCOCC3)c3ccc(F)cc23)cc1 [Example 1CJ] | 56 |  | 
44 | Cc1c(C(=O)c2cccc(F)c2F)c2ccccc2n1CCN1CCOCC1 [Example 1CK] |  | 30 | 
45 | Cc1cccc(C)c1C(=O)c1c(C)n(CCN2CCOCC2)c2ccccc12 [Example 1CL] |  | 30 | 
46 | Cc1c(C(=O)c2ccco2)c2ccccc2n1CCN1CCOCC1 [Example 1C] | 126 |  | 
47 | COc1ccc(C(=O)c2c(C)n(CCN3CCOCC3)c3c(C)cccc23)cc1 [Example 1E] |  | 0 | 
48 | COc1ccc(C(=O)c2c(C)n(CCN3CCOCC3)c3ccc(F)cc23)cc1 [Example 1G] | 84 |  | inhibition in vivo at 3 mg/kg [3]: 0%; inhibition in vivo at 10 mg/kg [3]: 50%; inhibition in vivo at 30 mg/kg [4]: 100%
49 | COc1ccc(C(=O)c2c(C)n(CCN3CCOCC3)c3ccccc23)cc1 [Example 1H] |  | 33 | inhibition in vivo at 3 mg/kg [3]: 0%; inhibition in vivo at 10 mg/kg [3]: 30%; inhibition in vivo at 30 mg/kg [4]: 100%; inhibition in vivo at 300 mg/kg [2]: 71%; inhibition in vivo at 30 mg/kg [5]: 2%
50 | COc1ccc(C(=O)c2c(C)n(CCCN3CCOCC3)c3ccc(F)cc23)cc1.Cl [Example 1I, 5-fluoro-2-methyl-3-(4-methoxybenzoyl)-1-[3-(4-morpholinyl)propyl]-1H-indole hydrochloride] | 75 |  | ED50 (Mus musculus, iv): 8.5 mg/kg
51 | COc1ccc(C(=O)c2c(C)n(CCN3CCOCC3)c3ccccc23)cc1 [Example 1J] |  |  | Ach ED50 (i.v.): 6.7 mg/kg; Ach ED50 (oral): 86 mg/kg
52 | COc1ccc(C(=O)c2c(C)n(CCN3CCCC3)c3ccccc23)cc1 [Example 1K] | 255 |  | inhibition in vivo at 3 mg/kg [3]: 30%; inhibition in vivo at 5.5 mg/kg (Mus musculus, iv, 5.5 mg./kg. i.v., read-out: Ach percent inhibition): 25%; inhibition in vivo at 10 mg/kg [3]: 44%
53 | COc1ccc(C(=O)c2c(C)n(CCN3CCOCC3)c3c(F)cccc23)cc1 [Example 1M] |  | 50 | 
54 | COc1ccc(C(=O)c2c(C)n(CCN3CCOCC3)c3c(OC)cccc23)cc1 [Example 1N] | 35.8 |  | 
